Reference: patent US8466202B2, “Anthracenedione compounds” (Sunten Phytotech Co., Ltd., priority 2006, dated 2013)
Several values for one entry are separate records, joined by “and”; a condition that tells them apart may be missing. Identical values can stand only once.

Columns and labels:
[1] = test system: healthy male S.D. rats; experiment: Feces production in rats over the 10-day period (Example 3); assay type: in vivo, rat; settings: for increase of the feces amount (wet weight): vs control of the same group; for Pellet count / Water content / Wet Weight: Sennosides 3.35 mg/kg; for increase of the feces amount (wet weight), average: average of Days 1, 5 and 10
Procedure: During this period, the body weights of the rats were weighed each day and recorded. Feces of each rat were studied three times during the period for any unusual observations. Specifically, the amounts of feces were weighed on Days 11, 15, 18, and 21. During observation, each rat was placed in a metabolic cage. Feces were collected every twenty-four hours. The number of collected feces pellets was counted, and the pellets' shapes and colors were evaluated. After weighing the moist feces, they were dried in an oven at 100° C. for twenty-four hours. The water content from the feces was calculated according to the following formula: Water content percentage=[(wet weight−dry weight)/wet weight]×100%. (I) The results are summarized in Table 2 below: The aforementioned STD05 and compounds were studied for the laxative activity. Healthy male S.D. rats (BioLASCO Taiwan Co. Ltd.) were divided into three groups (i.e., Groups 1-3) in this study. In Group I, 6 rats, as negative control, were given no treatment; 6 rats, as positive control, were given 3.35 mg/kg/day Sennosides (Through®, Chung Mei Pharmaceutical Co., Ltd; Active ingredient: Sennosides 20 mg, as sennoside A+B 12 mg, Lot. 012F 006); 6 rats were treated STD05 (8 mg/kg/day); 6 rats were treated with an extract fraction containing aloe-emodin, rhein, and emodin (“ARE”, 8 mg/kg/day); 6 rats were treated with Aloe-emodin (4 mg/kg/day); and 6 rats were treated with Rhein (4 mg/kg/day). In Group II, 6 rats, as negative control, were given no treatment; 6 rats, as positive control, were given 3.35 mg/kg/day Sennosides; 6 rats were treated STD05 (24 mg/kg/day); 6 rats were treated with an extract fraction containing ARE (24 mg/kg/day); 6 rats were treated with Chrysophanol (4 mg/kg/day); and 6 rats were treated with Emodin (4 mg/kg/day). In Group III, 6 rats, as negative control, were given no treatment; 6 rats were treated with Physcoin (4 mg/kg/day); and 6 rats were treated with a mixture of chrysophanol and physcion (8 mg/kg/day, “CP”). The experiments were carried out under controlled temperature, humidity, and lighting. Each rat was fed standard rat food and water ad libitum in housing that provided a 12-hour light/dark cycle. For statistical comparison, all of the rats were divided into six sets according to the body weights. The first part of the experiment studied the effect of the test substances on feces production. During the 10-day period, the body weights of the rats were weighed each day and recorded. The rat's feces was also studied three times in the manner described above during the 10-day period for any unusual observations. During the 10-day period, any rat that appeared dying was euthanized, dissected, and examined for any illness or injury. Any complications or illness were analyzed by H&E stains to determine the cause of death and to allow for dosage reconsiderations for future experiments. Summarized in Table 4 below are the effects of the compounds, mixtures, or extracts on the rat body weights. During the period, feces produced by the rats were studied days 1, 5, and 10 in the same manner described above. […] In the 10-day period, the rats administered with STD05 produced more feces (wet weight) that the rats in the control group by about 32%. In addition, the pellet counts for the rats administered with STD05 were greater than those for the control rats by about 20%. Furthermore, STD05 increased the water content in feces by about 18%. The same experiments were conducted on rats administered with physcion, aloe-emodin, chrysophanol, rhein, emodin, CP, and ARE.

[2] = Body weight of rats over the 10-day period (Example 3); assay type: in vivo, rat; parameters: Body weight Difference: unit not given here; settings: Sennosides 3.35 mg/kg/day; for Body weight Difference, Mean / Body weight End Day 10, Mean: group mean; for Body weight Difference, Mean / Body weight Difference: Day 10 minus Day 1; for Body weight Difference / Body weight End Day 10: individual rats
Procedure: The aforementioned STD05 and compounds were studied for the laxative activity. Healthy male S.D. rats (BioLASCO Taiwan Co. Ltd.) were divided into three groups (i.e., Groups 1-3) in this study. In Group I, 6 rats, as negative control, were given no treatment; 6 rats, as positive control, were given 3.35 mg/kg/day Sennosides (Through®, Chung Mei Pharmaceutical Co., Ltd; Active ingredient: Sennosides 20 mg, as sennoside A+B 12 mg, Lot. 012F 006); 6 rats were treated STD05 (8 mg/kg/day); 6 rats were treated with an extract fraction containing aloe-emodin, rhein, and emodin (“ARE”, 8 mg/kg/day); 6 rats were treated with Aloe-emodin (4 mg/kg/day); and 6 rats were treated with Rhein (4 mg/kg/day). In Group II, 6 rats, as negative control, were given no treatment; 6 rats, as positive control, were given 3.35 mg/kg/day Sennosides; 6 rats were treated STD05 (24 mg/kg/day); 6 rats were treated with an extract fraction containing ARE (24 mg/kg/day); 6 rats were treated with Chrysophanol (4 mg/kg/day); and 6 rats were treated with Emodin (4 mg/kg/day). In Group III, 6 rats, as negative control, were given no treatment; 6 rats were treated with Physcoin (4 mg/kg/day); and 6 rats were treated with a mixture of chrysophanol and physcion (8 mg/kg/day, “CP”). The experiments were carried out under controlled temperature, humidity, and lighting. Each rat was fed standard rat food and water ad libitum in housing that provided a 12-hour light/dark cycle. For statistical comparison, all of the rats were divided into six sets according to the body weights. The first part of the experiment studied the effect of the test substances on feces production. During the 10-day period, the body weights of the rats were weighed each day and recorded. The rat's feces was also studied three times in the manner described above during the 10-day period for any unusual observations. During the 10-day period, any rat that appeared dying was euthanized, dissected, and examined for any illness or injury. Any complications or illness were analyzed by H&E stains to determine the cause of death and to allow for dosage reconsiderations for future experiments. Summarized in Table 4 below are the effects of the compounds, mixtures, or extracts on the rat body weights.

[3] = Group I, Day 1, STD05 8 mg/kg, ARE 8 mg/kg, Aloe-emodin 4 mg/kg, Rhein 4 mg/kg
[4] = Group I, Day 5, STD05 8 mg/kg, ARE 8 mg/kg, Aloe-emodin 4 mg/kg, Rhein 4 mg/kg
[5] = Group I, Day 10, STD05 8 mg/kg, ARE 8 mg/kg, Aloe-emodin 4 mg/kg, Rhein 4 mg/kg
[6] = Group I, STD05 8 mg/kg, ARE 8 mg/kg, Aloe-emodin 4 mg/kg, Rhein 4 mg/kg
[7] = Group II, Day 1, STD05 24 mg/kg, ARE 24 mg/kg, Chrysophanol 4 mg/kg, Emodin 4 mg/kg
[8] = Group II, Day 5, STD05 24 mg/kg, ARE 24 mg/kg, Chrysophanol 4 mg/kg, Emodin 4 mg/kg
[9] = Group II, Day 10, STD05 24 mg/kg, ARE 24 mg/kg, Chrysophanol 4 mg/kg, Emodin 4 mg/kg
[10] = Group II, STD05 24 mg/kg, ARE 24 mg/kg, Chrysophanol 4 mg/kg, Emodin 4 mg/kg

| Compound | increase of the feces amount (wet weight) ([1]; Day 1) [%] | increase of the feces amount (wet weight) ([1]; Day 5) [%] | increase of the feces amount (wet weight) ([1]; Day 10) [%] | Pellet count [1, 3] | Water content [1, 3] [%] | Wet Weight [1, 3] [g] | Pellet count [1, 4] | Water content [1, 4] [%] | Wet Weight [1, 4] [g] | Pellet count [1, 5] | Water content [1, 5] [%] | Wet Weight [1, 5] [g] | increase of the feces amount (wet weight), average [1] [%] | Body weight Difference, Mean [2, 6] [g] | Body weight End Day 10, Mean [2, 6] [g] | Body weight Difference [2, 6] | Body weight End Day 10 [2, 6] | other results |
| --- | --- | --- | --- | --- | --- | --- | --- | --- | --- | --- | --- | --- | --- | --- | --- | --- | --- | --- |
| O=C1c2cccc(O)c2C(=O)c2c(O)cc(CO)cc21 [Aloe-emodin] | 27 | 9 | 20 | 98 | 42.48 | 17.00 | 104 | 41.98 | 20.21 | 125 | 50.48 | 28.86 | 19 | 58 | 330 | 45 and 50 (2×) and 40 (2×) and 55 | 315 (2×) and 335 and 345 (2×) and 325 |  |
| Cc1cc(O)c2c(c1)C(=O)c1cc(O)cc(O)c1C2=O [Emodin] | −30 | 12 | 4 |  |  |  |  |  |  |  |  |  | −5 |  |  |  |  | Pellet count [1, 7]: 90; Water content [1, 7]: 42.38%; Wet Weight [1, 7]: 16.86 g; Pellet count [1, 8]: 112; Water content [1, 8]: 51.00%; Wet Weight [1, 8]: 25.51 g; Pellet count [1, 9]: 106; Water content [1, 9]: 53.64%; Wet Weight [1, 9]: 26.21 g; Body weight Difference, Mean [2, 10]: 32 g; Body weight End Day 10, Mean [2, 10]: 379 g; Body weight Difference [2, 10]: 30 and 35 (3×) and 45 and 10; Body weight End Day 10 ([2]; Group II, STD05 24 mg/kg, ARE 24 mg/kg, Chrysophanol 4 mg/kg, Emodin 4 mg/kg, in g (unit assumed)): 370 and 380 and 405 and 340 and 385 and 395 |
| O=C(O)c1cc(O)c2c(c1)C(=O)c1cccc(O)c1C2=O [Rhein] | 31 | −9 | −1 | 102 | 42.58 | 17.57 | 89 | 44.55 | 16.88 | 119 | 46.53 | 23.52 | 7 | 51 | 331 | 55 (4×) and 50 and 35 | 330 (2×) and 340 (2×) and 310 and 335 |  |
